How the values were obtained:
[1] = tested on: Human myeloid leukemia cells (HL60); experiment: Evaluation of electron transfer with living cells (WST-8 formazan formation); type: cell-based; conditions: HL60 25,000 to 0 cells/well; WST-8 500 μM, electron mediator 10 μM; 37° C. for 3 hours; FIG. 3A-3D
Method: Examples of the evaluation of the electron transfer between the electron mediators and the living cells are shown. For comparison, a similar experiment was carried out using 1-Methoxy PMS, a known electron mediator that carries out electron transfer with the living cells. Human myeloid leukemia cells (HL60) were seeded on a 96 well microplate at 25,000 to 0 cells/well, the measurement reagent was added at a final concentration shown below, after reacting at 37° C. for 3 hours and absorbance at 450 nm was measured. Final concentration of the measurement reagent: WST-8 (500 μM), the electron mediator (10 μM).

[2] = tested on: Chinese Hamster Ovarian (CHO) cells; experiment: Cytotoxicity assay using LDH leaked out of the dead cells as an index; type: cell-based; conditions: comparison of the IC50 obtained with the electron mediator of the invention (FIG. 5A) and with the commercial LDH-Cytotoxicity Assay Kit (FIG. 5B); MMC 1 mM to 0.0001 mM, 20 hours
Method: The example of the cytotoxicity assay using the LDH leaked out of the dead cell as an index and the solutions of the chromogenic reagent prepared using the electron mediator according to the present invention is shown. As a model of the cytotoxicity assay, cytotoxicity of mitomycin C (MMC) against Chinese Hamster Ovarian (CHO) cells was assayed.
A suspension of the CHO cells at the concentration of 1.5×10^5 cells/mL was prepared using serum-containing medium and 100 μL of the suspension was seeded to each well of a 96 well microplate. After incubating at 37° C. for 4 hours in a CO2 incubator, 10 μL of MMC was added at final concentration of 1 mM to 0.0001 mM. The microplate was incubated at 37° C. for 20 hours in the CO2 incubator. […] After incubating at 37° C. for 20 minutes in a CO2 incubator, the absorbance at 450 nm was measured using a microplate reader.
A comparative experiment using a commercially available dead cell assay kit (BioPioneer Inc., LDH-Cytotoxicity Assay Kit) using LDH as an index. […] The measurement method of the absorbance was similar to that as mentioned above except that supernatant of the medium was taken and transferred to another plate so as not to be contaminated with the living cells upon conducting the chromogenic reaction.

| SMILES | formation of the formazan attributed to the living cells (absorbance at 450 nm) [1] | 50% Inhibition concentration (IC50) against the CHO cell [2] |
| --- | --- | --- |
| COS(=O)(=O)[O-].COc1cccc2c1nc1ccccc1[n+]2C [1-Methoxy PMS, 1-methoxy phenazine methosulfate] | increasing of absorbance | – |
| CO[C@@]12[C@H](COC(N)=O)C3=C(C(=O)C(C)=C(N)C3=O)N1C[C@@H]1N[C@@H]12 [mitomycin C] | – | No difference was observed |
